Test results reported in paper PMC5021161 (Environmental and Molecular Mutagenesis, 2016).
Like-named read-outs stand apart in the source and are kept apart here.

Columns and labels:
ATF3 = type: cell-based, human; conditions: 2 μg/ml; 2% Aroclor S9; 4 hr + 3-4 hr recovery
CDKN1A = type: cell-based, human
GADD45A = type: cell-based, human
TK6 cells [1] = conditions: 2% Aroclor S9, 4 hr + 20 hr recovery
TK6 cells [2] = conditions: 2% Aroclor S9, 4 hr + 20 hr recovery; remark: listed apart in the source
TK6 cells [3] = conditions: for % MN: 2% Aroclor S9
[4] = test system: TGx‐28.65 biomarker genes; conditions: for Dendogram TGx‐28.65 / NSC TGx‐28.65 / PCA TGx‐28.65: 2% Aroclor S9, 4 hr + 3-4 hr recovery
[5] = 2 μg/ml, 2% Aroclor S9, 4 hr + 3-4 hr recovery

With `Nc1ccc2cc3ccccc3cc2c1` [2‐Aminoanthracene] the “ATF3 fold change vs vehicle control (+S9)” value (ATF3) was 2.3 fold change, the “CDKN1A fold change vs vehicle control (+S9)” value (CDKN1A; [5]) was 4.6 fold change and the “GADD45A fold change vs vehicle control (+S9)” value (GADD45A; [5]) was 1.7 fold change. For the same compound, the “% Relative Survival” value (TK6 cells [1]; 2 μg/ml) was 46.78%, the “% Relative Survival” value (TK6 cells [1]; 2 μg/ml, listed as 2‐aminoanthracene) was 47% and the “% Apoptotic cells” value (TK6 cells [2]; 2 μg/ml) was 18.48%. For the same compound, the “% MN” value (TK6 cells [3]; 2 μg/ml, 4 hr + 20 hr recovery) was 1.22%, the “fold increase in % MN above vehicle + S9 control” value (TK6 cells [3]; high concentration, definitive study, 4 hr + 20 hr recovery) was 1.8 fold and the “Dendogram TGx‐28.65” value ([4]; 2 μg/ml) was “+”. The “NSC TGx‐28.65” value ([4]; 2 μg/ml) was “+”, the “PCA TGx‐28.65” value ([4]; 2 μg/ml) was “+” and the “probability of being genotoxic (NSC, TGx‐28.65)” value ([4]; all concentrations) was greater than 0.9. The “classification using TGx‐28.65” value ([4]; mid and high concentrations) was “genotoxic”.
`O=[N+]([O-])c1ccc2c(c1)Cc1ccccc1-2` [2‐Nitrofluorene] was tested, and the “% Apoptotic cells” value (TK6 cells [2]; 10 μM) was 9.84%, the “% Apoptotic cells” value (TK6 cells [2]; 50 μM) was 12.62% and the “% Apoptotic cells” value (TK6 cells [2]; 300 μM) was 20.43%. For the same compound, the “% MN” value (TK6 cells [3]; 10 μM, 4 hr + 20 hr recovery) was 1.48%, the “% MN” value (TK6 cells [3]; 50 μM, 4 hr + 20 hr recovery) was 2.23% and the “% MN” value (TK6 cells [3]; 300 μM, 4 hr + 20 hr recovery) was 3.13%. For the same compound, the “Dendogram TGx‐28.65” value ([4]; 10 μM) was “−”, the “NSC TGx‐28.65” value ([4]; 10 μM) was “−” and the “PCA TGx‐28.65” value ([4]; 10 μM) was “−”. For the same compound, the “Dendogram TGx‐28.65” value ([4]; 50 μM) was “−”, the “NSC TGx‐28.65” value ([4]; 50 μM) was “+” and the “PCA TGx‐28.65” value ([4]; 50 μM) was “+”. The “Dendogram TGx‐28.65” value ([4]; 300 μM) was “−”, the “NSC TGx‐28.65” value ([4]; 300 μM) was “+” and the “PCA TGx‐28.65” value ([4]; 300 μM) was “+”. For the same compound, the “classification by hierarchical cluster analysis (TGx‐28.65 genes)” value ([4]; all concentrations) was “non‐genotoxic”, the “classification using TGx‐28.65” value ([4]; low concentrations) was “non‐genotoxic” and the “classification using TGx‐28.65” value ([4]; mid and high concentrations) was “genotoxic”.
In the case of `CC(=O)Nc1ccc(O)cc1` [Acetaminophen], the “concentration range in which toxic effects are observed” value (TK6 cells [3]; human) is reported as 3000 to 10000 µM.
`O=P1(N(CCCl)CCCl)NCCCO1` (centres unmarked) [Cyclophosphamide] was tested, and the “fold increase in % MN above vehicle + S9 control” value (TK6 cells [3]; human) was 8 fold.
With `c1ccc2c(c1)ccc1ccccc12` [Phenanthrene] the “% Relative Survival” value (TK6 cells [1]; 8 μg/ml) was 94.13%, the “% Relative Survival” value (TK6 cells [1]; 40 μg/ml) was 65.32% and the “% Relative Survival” value (TK6 cells [1]; 100 μg/ml) was 38.91%. For the same compound, the “% Relative Survival” value (TK6 cells [1]; 100 μg/ml, listed as phenanthrene) was roughly 40%, the “% Apoptotic cells” value (TK6 cells [2]; 8 μg/ml) was 10.60% and the “% Apoptotic cells” value (TK6 cells [2]; 40 μg/ml) was 14.71%. For the same compound, the “% Apoptotic cells” value (TK6 cells [2]; 100 μg/ml) was 26.73%, the “increase in % MN” value (TK6 cells [3]) was “no significant increase” and the “Dendogram TGx‐28.65” value ([4]; 8 μg/ml) was “−”. For the same compound, the “NSC TGx‐28.65” value ([4]; 8 μg/ml) was “−”, the “PCA TGx‐28.65” value ([4]; 8 μg/ml) was “−” and the “Dendogram TGx‐28.65” value ([4]; 40 μg/ml) was “−”. For the same compound, the “NSC TGx‐28.65” value ([4]; 40 μg/ml) was “−”, the “PCA TGx‐28.65” value ([4]; 40 μg/ml) was “−” and the “Dendogram TGx‐28.65” value ([4]; 100 μg/ml) was “−”. For the same compound, the “NSC TGx‐28.65” value ([4]; 100 μg/ml) was “−” and the “PCA TGx‐28.65” value ([4]; 100 μg/ml) was “−”.
`OC[C@H]1O[C@@](CO)(O[C@H]2O[C@H](CO)[C@@H](O)[C@H](O)[C@H]2O)[C@@H](O)[C@@H]1O` [Sucrose] was tested, and the “CDKN1A fold change vs vehicle control (+S9)” value (CDKN1A) was 0.4 fold change, the “GADD45A fold change vs vehicle control (+S9)” value (GADD45A) was 0.8 fold change and the “% Relative Survival” value (TK6 cells [1]; 1 mM) was 95.04%. For the same compound, the “% Relative Survival” value (TK6 cells [1]; 10 mM) was 90.93%, the “% Apoptotic cells” value (TK6 cells [2]; 1 mM) was 8.98% and the “% Apoptotic cells” value (TK6 cells [2]; 10 mM) was 9.75%. For the same compound, the “% MN” value (TK6 cells [3]; 1 mM, 4 hr + 20 hr recovery) was 0.94%, the “% MN” value (TK6 cells [3]; 10 mM, 4 hr + 20 hr recovery) was 0.97% and the “increase in % MN” value (TK6 cells [3]; definitive study, 2% Aroclor‐induced S9) was “no significant increase”. The “Dendogram TGx‐28.65” value ([4]; 1 mM) was “−”, the “NSC TGx‐28.65” value ([4]; 1 mM) was “−” and the “PCA TGx‐28.65” value ([4]; 1 mM) was “−”. For the same compound, the “Dendogram TGx‐28.65” value ([4]; 10 mM) was “−”, the “NSC TGx‐28.65” value ([4]; 10 mM) was “−” and the “PCA TGx‐28.65” value ([4]; 10 mM) was “−”.
